Data published in PubChem BioAssay AID488879 (Sanford-Burnham Center for Chemical Genomics, 2010).
pIC50: −log10 of the molar value. The source made the active and inactive calls. No rule for the calls is given here.

Biological target: alkaline phosphatase, placental type (Homo sapiens)
Assay: inhibition of placental alkaline phosphatase – biochemical, uHTS hits, selectivity assay for mouse IAP inhibitor project, dose response (AID 488879)
Conditions: purified human placental alkaline phosphatase, enzymatic inhibition

## C#CCOCCOCCOCCNc1nc(N2CCN(C(=O)CCCCCCCCCCNC(=O)Cn3cc(C[C@@H](C)O)nn3)CC2)nc(N2CCN(C(=O)CCCCCCCCCCNC(=O)[C@@H](CCSC)n3cc(CCO)nn3)CC2)n1
  pIC50: 4.40

## COC(=O)c1ccc(NS(=O)(=O)c2ccc3[nH]c(=O)oc3c2)cc1
  IC50: > 100 µM (inactive)

## CCOc1ccccc1CNC(=O)CCNS(=O)(=O)c1ccc2[nH]c(=O)oc2c1
  IC50: > 100 µM (inactive)

## S=C(NCCC(c1ccccc1)c1ccccc1)Nc1cccc(Cl)c1
  pIC50: 4.14

## CCn1nc(C)c(CN2CCC(C(=O)Nc3cccc(-c4cccc(Cl)c4)c3)CC2)c1C
  IC50: > 100 µM (inactive)

## O=C(Nc1cccc(-c2cccc(Cl)c2)c1)C1CCN(C2CCC2)CC1
  pIC50: 4.99

## Cc1ccc(S(=O)(=O)N2CCC(C(=O)Nc3ccc(C(C)C)cc3)CC2)cc1
  IC50: > 100 µM (inactive)

## CC(/C=C/C1(O)C(C)CC(=O)CC1(C)C)OC1OC(CO)C(O)C(O)C1O (stereo not drawn)
  IC50: > 100 µM (inactive)

## O=C(COC(=O)c1ccccc1)Nc1ncc([N+](=O)[O-])s1
  pIC50: 4.22

## CCCCCOc1ccc(C(=O)CCC(=O)NNC(=O)c2ccncc2)cc1
  IC50: > 100 µM (inactive)

## CCCn1ncc(CN2CCC(C(=O)Nc3cccc(-c4cccc(F)c4)c3)CC2)c1C
  IC50: > 100 µM (inactive)

## Oc1cc(O)c2c(c1)O[C@H](c1ccc(O)c(O)c1)[C@@H](O)C2
  IC50: > 100 µM (inactive)

## O=C(NC1CCCCC1)Oc1cc2oc(=O)sc2cc1Cl
  pIC50: 5.23

## CCN(c1ccccc1)S(=O)(=O)c1ccc2[nH]c(=O)[nH]c2c1
  pIC50: 4.20

## CCOc1ccc(S(=O)(=O)Nc2ccc(O)c(Sc3ncn[nH]3)c2)cc1
  pIC50: 4.69

## Cc1ccc(CNC(=S)NC2CCC(C(C)(C)C)CC2)cc1 (stereo not drawn)
  IC50: > 100 µM (inactive)

## COc1ccc(Cl)cc1NC(=S)NCCC(c1ccccc1)c1ccccc1
  pIC50: 4.40

## CCOc1ccc(S(=O)(=O)Nc2cc(Sc3ncn[nH]3)c3oc(=O)sc3c2)cc1
  IC50: > 100 µM (inactive)

## C#CCOCCOCCOCCNc1nc(N2CCN(C(=O)CCCCCCCCCCNC(=O)Cn3cc(CCCCCN)nn3)CC2)nc(N2CCN(C(=O)CCCCCCCCCCNC(=O)[C@@H](CCSC)n3cc(CCO)nn3)CC2)n1
  IC50: > 100 µM (inactive)

## Cc1nonc1C(=O)N/N=C/c1ccc(O)c(O)c1
  pIC50: 4.74

## Oc1ccc(-c2csc(Nc3cccc4ccccc34)n2)cc1O
  IC50: > 100 µM (inactive)

## C#CCOCCOCCOCCNc1nc(N2CCN(C(=O)CCCCCCCCCCNC(=O)Cn3cc(C[C@@H](C)O)nn3)CC2)nc(N2CCN(C(=O)CCCCCCCCCCNC(=O)[C@H](CCCCN)n3cc(C[C@@H](C)CC)nn3)CC2)n1
  IC50: > 100 µM (inactive)

## O=C1NN(c2cccc(Br)c2)C(=O)/C1=C/c1ccc(-c2cc([N+](=O)[O-])ccc2O)o1
  IC50: > 100 µM (inactive)

## CC(C)=CCc1c(O)c(CC=C(C)C)c2c(c1O)-c1cc(O)c(O)cc1CC2
  IC50: > 100 µM (inactive)

## O=C1N=c2ccccc2=C1c1sc(=S)n(NC(=O)c2ccccc2)c1O
  pIC50: 5.27

## Cc1ccc(S(=O)(=O)Nc2ccc(O)c(Sc3ncn[nH]3)c2)cc1
  IC50: > 100 µM (inactive)

## COc1ccc(CN2C3CCCC2CC(NC(=O)Nc2cccc(C)c2)C3)cc1 (stereo not drawn)
  pIC50: 4.52

## Nc1nnc(CC(=O)N/N=C/c2cc([N+](=O)[O-])cc(Br)c2O)s1
  IC50: > 100 µM (inactive)
